From PubChem BioAssay (NCI)
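Compound exposure: 48 hours, 5 concentrations, 96-well plates. GI50 = concentration required for 50% inhibition of growth. Definition used: TGI = concentration required for complete inhibition of growth.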

Assays:
Assay in all cases: NCI anticancer screen, dose series, 48 h
NCI/ADR-RES ovarian = system: NCI/ADR-RES ovarian
M14 melanoma = system: M14 melanoma
NCI-H460 lung = system: NCI-H460 lung
MDA-MB-231 breast = system: MDA-MB-231 breast
NCI-H226 lung = system: NCI-H226 lung
K-562 leukemia = system: K-562 leukemia
CCRF-CEM leukemia = system: CCRF-CEM leukemia
ACHN renal = system: ACHN renal
COLO 205 colon = system: COLO 205 colon
T-47D breast = system: T-47D breast
IGROV1 ovarian = system: IGROV1 ovarian
SK-MEL-28 melanoma = system: SK-MEL-28 melanoma
OVCAR-8 ovarian = system: OVCAR-8 ovarian
HT29 colon = system: HT29 colon
SK-OV-3 ovarian = system: SK-OV-3 ovarian
HCT-15 colon = system: HCT-15 colon
OVCAR-3 ovarian = system: OVCAR-3 ovarian
RPMI-8226 leukemia = system: RPMI-8226 leukemia
SN12C renal = system: SN12C renal
OVCAR-4 ovarian = system: OVCAR-4 ovarian
SF-295 CNS = system: SF-295 CNS
MDA-MB-435 = system: MDA-MB-435
LOX IMVI melanoma = system: LOX IMVI melanoma
DU-145 prostate = system: DU-145 prostate
UO-31 renal = system: UO-31 renal
HOP-92 NSCLC = system: HOP-92 NSCLC
SNB-75 CNS = system: SNB-75 CNS
MOLT-4 leukemia = system: MOLT-4 leukemia
CAKI-1 renal = system: CAKI-1 renal
786-0 renal = system: 786-0 renal
PC-3 prostate = system: PC-3 prostate
HOP-62 NSCLC = system: HOP-62 NSCLC
RXF 393 renal = system: RXF 393 renal
BT-549 breast = system: BT-549 breast
NCI-H23 lung = system: NCI-H23 lung
TK-10 renal = system: TK-10 renal
SF-268 CNS = system: SF-268 CNS
HCT-116 colon = system: HCT-116 colon
SW-620 colon = system: SW-620 colon
KM12 colon = system: KM12 colon
U251 CNS = system: U251 CNS
SK-MEL-2 melanoma = system: SK-MEL-2 melanoma
HS 578T breast = system: HS 578T breast
HCC-2998 colon = system: HCC-2998 colon
SF-539 CNS = system: SF-539 CNS
A549 NSCLC = system: A549 NSCLC
UACC-62 melanoma = system: UACC-62 melanoma
SR leukemia = system: SR leukemia
SK-MEL-5 melanoma = system: SK-MEL-5 melanoma
HL-60(TB) leukemia = system: HL-60(TB) leukemia
SNB-19 CNS = system: SNB-19 CNS
A498 renal = system: A498 renal
UACC-257 melanoma = system: UACC-257 melanoma
MCF7 breast = system: MCF7 breast
OVCAR-5 ovarian = system: OVCAR-5 ovarian
EKVX NSCLC = system: EKVX NSCLC
NCI-H522 lung = system: NCI-H522 lung
MALME-3M melanoma = system: MALME-3M melanoma

SMILES: CCCn1cnc2c(c1=N)C(c1ccc(OC)cc1)c1sc3c(C)cccc3c1O2 (stereo not given)
- GI50 (NCI/ADR-RES ovarian): 0.359 µM
- TGI (NCI/ADR-RES ovarian): 12.4 µM
- GI50 (M14 melanoma): 0.401 µM
- TGI (M14 melanoma): 12.5 µM
- GI50 (NCI-H460 lung): 0.381 µM
- TGI (NCI-H460 lung): 10.5 µM
- GI50 (MDA-MB-231 breast): 1.15 µM
- TGI (MDA-MB-231 breast): 15.9 µM
- GI50 (NCI-H226 lung): 0.419 µM
- TGI (NCI-H226 lung): 9.6 µM
- GI50 (K-562 leukemia): 0.261 µM
- TGI (K-562 leukemia): 5.52 µM
- GI50 (CCRF-CEM leukemia): 0.355 µM
- GI50 (ACHN renal): 0.604 µM
- TGI (ACHN renal): 15.2 µM
- GI50 (COLO 205 colon): 0.592 µM
- TGI (COLO 205 colon): 4.92 µM
- GI50 (T-47D breast): 0.527 µM
- TGI (T-47D breast): 30.4 µM
- GI50 (IGROV1 ovarian): 0.472 µM
- TGI (IGROV1 ovarian): 13.9 µM
- GI50 (SK-MEL-28 melanoma): 3.34 µM
- TGI (SK-MEL-28 melanoma): 21.6 µM
- GI50 (OVCAR-8 ovarian): 0.564 µM
- TGI (OVCAR-8 ovarian): 18.8 µM
- GI50 (HT29 colon): 0.557 µM
- TGI (HT29 colon): 13.7 µM
- GI50 (SK-OV-3 ovarian): 0.657 µM
- TGI (SK-OV-3 ovarian): 22.2 µM
- GI50 (HCT-15 colon): 0.408 µM
- TGI (HCT-15 colon): 8.68 µM
- GI50 (OVCAR-3 ovarian): 0.379 µM
- TGI (OVCAR-3 ovarian): 5.92 µM
- GI50 (RPMI-8226 leukemia): 0.369 µM
- TGI (RPMI-8226 leukemia): 4.45 µM
- GI50 (SN12C renal): 0.635 µM
- TGI (SN12C renal): 15.5 µM
- GI50 (OVCAR-4 ovarian): 1.61 µM
- TGI (OVCAR-4 ovarian): 20.7 µM
- GI50 (SF-295 CNS): 0.368 µM
- TGI (SF-295 CNS): 11.6 µM
- GI50 (MDA-MB-435): 0.187 µM
- TGI (MDA-MB-435): 0.484 µM
- GI50 (LOX IMVI melanoma): 0.656 µM
- TGI (LOX IMVI melanoma): 12.3 µM
- GI50 (DU-145 prostate): 0.453 µM
- TGI (DU-145 prostate): 15.2 µM
- GI50 (UO-31 renal): 0.406 µM
- TGI (UO-31 renal): 16.5 µM
- GI50 (HOP-92 NSCLC): 1.18 µM
- TGI (HOP-92 NSCLC): 16.6 µM
- GI50 (SNB-75 CNS): 0.209 µM
- TGI (SNB-75 CNS): 1.7 µM
- GI50 (MOLT-4 leukemia): 0.569 µM
- TGI (MOLT-4 leukemia): 12.7 µM
- GI50 (CAKI-1 renal): 0.208 µM
- TGI (CAKI-1 renal): 15 µM
- GI50 (786-0 renal): 0.523 µM
- TGI (786-0 renal): 14.4 µM
- GI50 (PC-3 prostate): 0.415 µM
- TGI (PC-3 prostate): 16 µM
- GI50 (HOP-62 NSCLC): 0.406 µM
- TGI (HOP-62 NSCLC): 16.7 µM
- GI50 (RXF 393 renal): 0.215 µM
- TGI (RXF 393 renal): 0.603 µM
- GI50 (BT-549 breast): 1.35 µM
- TGI (BT-549 breast): 12.7 µM
- GI50 (NCI-H23 lung): 0.535 µM
- TGI (NCI-H23 lung): 14.2 µM
- GI50 (TK-10 renal): 8.09 µM
- TGI (TK-10 renal): 33.9 µM
- GI50 (SF-268 CNS): 0.787 µM
- TGI (SF-268 CNS): 14.9 µM
- GI50 (HCT-116 colon): 0.4 µM
- TGI (HCT-116 colon): 10.9 µM
- GI50 (SW-620 colon): 0.517 µM
- TGI (SW-620 colon): 17.3 µM
- GI50 (KM12 colon): 0.474 µM
- TGI (KM12 colon): 12 µM
- GI50 (U251 CNS): 0.445 µM
- TGI (U251 CNS): 12.9 µM
- GI50 (SK-MEL-2 melanoma): 0.719 µM
- TGI (SK-MEL-2 melanoma): 21 µM
- GI50 (HS 578T breast): 0.381 µM
- TGI (HS 578T breast): 8.87 µM
- GI50 (HCC-2998 colon): 0.886 µM
- TGI (HCC-2998 colon): 4.91 µM
- GI50 (SF-539 CNS): 0.301 µM
- TGI (SF-539 CNS): 1.27 µM
- GI50 (A549 NSCLC): 0.717 µM
- TGI (A549 NSCLC): 18.1 µM
- GI50 (UACC-62 melanoma): 0.439 µM
- TGI (UACC-62 melanoma): 15 µM
- GI50 (SR leukemia): 0.349 µM
- GI50 (SK-MEL-5 melanoma): 0.411 µM
- TGI (SK-MEL-5 melanoma): 12.5 µM
- GI50 (HL-60(TB) leukemia): 0.292 µM
- TGI (HL-60(TB) leukemia): 2.68 µM
- GI50 (SNB-19 CNS): 0.49 µM
- TGI (SNB-19 CNS): 16 µM
- GI50 (A498 renal): 0.317 µM
- TGI (A498 renal): 1.03 µM
- GI50 (UACC-257 melanoma): 12.9 µM
- TGI (UACC-257 melanoma): 35.5 µM
- GI50 (MCF7 breast): 0.303 µM
- TGI (MCF7 breast): 12.9 µM
- GI50 (OVCAR-5 ovarian): 1.16 µM
- TGI (OVCAR-5 ovarian): 15 µM
- GI50 (EKVX NSCLC): 0.598 µM
- TGI (EKVX NSCLC): 20.4 µM
- GI50 (NCI-H522 lung): 0.409 µM
- TGI (NCI-H522 lung): 7.59 µM

SMILES: Cc1ccc2c(c1)Oc1nc(N)c(C#N)c(N)c1C2Sc1ccc(F)cc1 (stereo not given)
- GI50 (M14 melanoma): 1.44 µM
- TGI (M14 melanoma): 2.85 µM
- GI50 (NCI-H226 lung): 1.53 µM
- TGI (NCI-H226 lung): 4.16 µM
- GI50 (K-562 leukemia): 0.309 µM
- TGI (K-562 leukemia): > 100 µM
- GI50 (CCRF-CEM leukemia): 0.201 µM
- TGI (CCRF-CEM leukemia): > 100 µM
- GI50 (ACHN renal): 1.34 µM
- TGI (ACHN renal): 2.63 µM
- GI50 (COLO 205 colon): 1.33 µM
- TGI (COLO 205 colon): 2.78 µM
- GI50 (SK-MEL-28 melanoma): 1.17 µM
- TGI (SK-MEL-28 melanoma): 2.4 µM
- GI50 (OVCAR-8 ovarian): 1.3 µM
- TGI (OVCAR-8 ovarian): 2.61 µM
- GI50 (HT29 colon): 1.82 µM
- TGI (HT29 colon): 3.43 µM
- GI50 (SK-OV-3 ovarian): 1.8 µM
- TGI (SK-OV-3 ovarian): 3.29 µM
- GI50 (RPMI-8226 leukemia): 0.448 µM
- TGI (RPMI-8226 leukemia): > 100 µM
- GI50 (OVCAR-4 ovarian): 1.45 µM
- TGI (OVCAR-4 ovarian): 2.78 µM
- GI50 (SF-295 CNS): 1.68 µM
- TGI (SF-295 CNS): 3.07 µM
- GI50 (MDA-MB-435): 1.26 µM
- TGI (MDA-MB-435): 2.67 µM
- GI50 (DU-145 prostate): 1.48 µM
- TGI (DU-145 prostate): 2.82 µM
- GI50 (UO-31 renal): 0.215 µM
- TGI (UO-31 renal): 1.72 µM
- GI50 (HOP-92 NSCLC): 1.14 µM
- TGI (HOP-92 NSCLC): 2.44 µM
- GI50 (SNB-75 CNS): 0.956 µM
- TGI (SNB-75 CNS): 2.33 µM
- GI50 (MOLT-4 leukemia): 0.306 µM
- GI50 (786-0 renal): 1.19 µM
- TGI (786-0 renal): 2.45 µM
- GI50 (HOP-62 NSCLC): 1.62 µM
- TGI (HOP-62 NSCLC): 3.08 µM
- GI50 (RXF 393 renal): 0.611 µM
- TGI (RXF 393 renal): 1.69 µM
- GI50 (BT-549 breast): 0.415 µM
- TGI (BT-549 breast): 1.71 µM
- GI50 (TK-10 renal): 2.23 µM
- TGI (TK-10 renal): 3.7 µM
- GI50 (SF-268 CNS): 1.23 µM
- TGI (SF-268 CNS): 2.52 µM
- GI50 (KM12 colon): 1.48 µM
- TGI (KM12 colon): 2.83 µM
- GI50 (U251 CNS): 1.17 µM
- TGI (U251 CNS): 2.49 µM
- GI50 (MALME-3M melanoma): 0.992 µM
- TGI (MALME-3M melanoma): 2.34 µM
- GI50 (SK-MEL-2 melanoma): 1.3 µM
- TGI (SK-MEL-2 melanoma): 2.6 µM
- GI50 (HS 578T breast): 1.02 µM
- TGI (HS 578T breast): 4.22 µM
- GI50 (HCC-2998 colon): 1.51 µM
- TGI (HCC-2998 colon): 2.92 µM
- GI50 (SF-539 CNS): 1.34 µM
- TGI (SF-539 CNS): 2.63 µM
- GI50 (A549 NSCLC): 1.55 µM
- TGI (A549 NSCLC): 3.01 µM
- GI50 (UACC-62 melanoma): 1.5 µM
- TGI (UACC-62 melanoma): 2.87 µM
- GI50 (SR leukemia): 0.301 µM
- TGI (SR leukemia): > 100 µM
- GI50 (SK-MEL-5 melanoma): 1.57 µM
- TGI (SK-MEL-5 melanoma): 2.95 µM
- GI50 (HL-60(TB) leukemia): 0.242 µM
- TGI (HL-60(TB) leukemia): 0.647 µM
- GI50 (A498 renal): 1.45 µM
- TGI (A498 renal): 2.78 µM
- GI50 (UACC-257 melanoma): 1.29 µM
- TGI (UACC-257 melanoma): 2.58 µM
- GI50 (MCF7 breast): 0.361 µM
- TGI (MCF7 breast): 1.99 µM
- GI50 (EKVX NSCLC): 1.22 µM
- TGI (EKVX NSCLC): 2.47 µM
- GI50 (NCI-H522 lung): 0.785 µM
- TGI (NCI-H522 lung): 2.1 µM
